Legend:
Type in all cases: physicochemical
[1] = Slurry experiment (ageing in solvents, XRPD analysis)
Procedure: (§1) XRPD measurements were performed with the X-ray powder diffractometer Bruker D8 Advance at room temperature using copper filled X-ray tube (40 kV×40 mA) as the X-ray source, CuKα (λ=1.5418 Å), a fixed 0.6 mm divergence slit, 0.0125 mm Ni filter and a 2.5° primary Soller slit, and a LynxEye 1-dimensional detector with a 2.5° secondary Soller slit. Data collection was done in 0.02° steps at a scan speed of 0.3°/s, in the range of 3-33° 2θ.
Samples of 20 mg of crystalline form 5 (water content 0.3-0.6) of compound (I) were dispensed in 300 μl of various solvents defined in Table 13 at room temperature (RT) or at 40° C. under magnetic stirring (600-1000 rpm). The resulting suspensions were aged for 1 week at the respective temperatures. After the ageing period the samples were recovered, air-dried at RT and analyzed by XRPD.

[2] = Storage at room temperature in a closed container, re-analysis by XRPD; settings: two weeks
Procedure: as §1
Crystalline form 4 of compound (I) was stored at room temperature in a closed container.

[3] = Grinding with water in a ball mill, XRPD analysis; settings: 25-30 mg ground with 80 μl of water, Retsch ball mill, 1.5 h, 30 Hz
Procedure: as §1
25-30 mg of crystalline form 3 of compound (I) was ground with 80 μl of water using a Retsch ball mill. Water addition was done in two steps, with total grinding time of 1.5 h and v=30 Hz.

CS(=O)(=O)N1CCC(COc2coc(CN3Cc4ccccc4C3)cc2=O)CC1 [form 5, 2-(isoindolin-2-ylmethyl)-5-((1-(methylsulfonyl)piperidin-4-yl)methoxy)-4H-pyran-4-one]
solid form stability in slurry ([1]; suspensions in the solvents of Table 13, 1 week, RT or 40° C.): stable in conditions with lower water activity

CS(=O)(=O)N1CCC(COc2coc(CN3Cc4ccccc4C3)cc2=O)CC1 [Crystalline form 4, 2-(isoindolin-2-ylmethyl)-5-((1-(methylsulfonyl)piperidin-4-yl)methoxy)-4H-pyran-4-one]
solid form after storage (XRPD) [2]: mixture of crystalline form 4 and crystalline form 3

CS(=O)(=O)N1CCC(COc2coc(CN3Cc4ccccc4C3)cc2=O)CC1 [2-(isoindolin-2-ylmethyl)-5-((1-(methylsulfonyl)piperidin-4-yl)methoxy)-4H-pyran-4-one]
solid form after ageing of the suspension (XRPD) ([1]; 20 mg in 300 μl of the solvents of Table 13, RT or 40° C., magnetic stirring, aged for 1 week): crystalline form 5 (water content 0.3)

CS(=O)(=O)N1CCC(COc2coc(CN3Cc4ccccc4C3)cc2=O)CC1 [crystalline form 3, 2-(isoindolin-2-ylmethyl)-5-((1-(methylsulfonyl)piperidin-4-yl)methoxy)-4H-pyran-4-one]
solid form after grinding with water (XRPD) [3]: crystalline form 2

From US20240158378A1, “SOLID FORMS OF A 4H-PYRAN-4-ONE STRUCTURED CYP11A1 INHIBITOR” (Orion Corporation, priority 2021, published 2024)
